Test results published in patent US20230271950A1, “ANTIBACTERIAL PICOLINAMIDE COMPOUNDS” (University of Notre Dame Du Lac, priority 2020, published 2023).
In brackets after ≈: the same amount, converted by molar mass. Like-named read-outs stand apart in the source and are kept apart here.

Tests used:
[1] = Pharmacokinetics study in mice (plasma and feces levels); assay type: in vivo; details: for Conc. feces/MIC: dose 20 mg · kg^−1; for concentration at 8 h: female, CD-1, mouse, single oral gavage, dose 20 mg · kg^−1, feces collected after 8 h, read-out: Drug concentration in fecal samples (mg kg^−1 feces)
Method: Pharmacokinetics (PK) study. Mice (n=2 per time point) were given a single 100 μL solution of 5 mg/mL of compound 1 (equivalent to 20 mg/kg). Terminal blood was collected in heparinized syringes by cardiac puncture at 30 min, 1 h, 2 h, 4 h, and 8 h. The two mice at the 8-h time point were place in metabolism cages for collection of feces. Compound 1 was dissolved in 5% DMSO/95% water with 96 mg/mL of sodium bicarbonate. Blood was centrifuged at 1,000 g for 20 min at 4° C. and plasma was separated and stored at −80° C. until analysis. A 45-μL aliquot of plasma was mixed with 5 μL of H2O:ACN (1:1) and was quenched with 100 μL of acetonitrile containing 20 μM of internal standard (compound 10). The sample was centrifuged at 21,000 g for 15 min at 4° C. to precipitate the proteins, and the resulting supernatant was analyzed by UPLC-TQD detector using multiple-reaction monitoring (MRM). Calibration curves for compound 1 were prepared from 0 to 102.4 μM using a control mouse plasma (50 μL). Peak area ratios relative to internal standard and linear regression was used from which the concentrations in plasma samples from the PK study were determined.
An average of 250 mg of feces were collected at 8 h from two mice, and subsequently homogenized with 6 times the feces volume (1,500 μL of H2O:ACN 1:1) using a Bullet Blender (Next Advance, Inc., Troy, N.Y.). The homogenate was centrifuged at 21,000 g for 5 min. The fecal supernatant (72 μL) was mixed with 8 μL of a solution of H2O:ACN (1:1) and 40 μL of 50 μM of the internal standard in ACN with 0.5% formic acid. A calibration curve was prepared from 0 μM to 102.4 μM in control mouse feces. Plasma and feces were analyzed on a Waters TQD tandem quadrupole detector (Waters Corporation, Milford, Mass.) using a YMC-Triart C18 100 mm×2.0 mm column (3μ, YMC Co. Ltd, Kyoto, Japan). The chromatographic conditions consisted of elution with 30% H2O/70% ACN containing 0.10% formic acid for 5 min at a flow rate 0.5 mL/min. Mass Spectrometry acquisition was performed in the positive electrospray ionization mode with MRM. The capillary, cone, extractor and RF lens voltages were set at 2.8 kV, 40 V, 1 V and 0.1 V, respectively. The desolvation and cone gas (nitrogen) flow rates were 650 L/h and 50 L/h, respectively. The source temperature was set at 150° C. The desolvation temperature was 350° C. The MRM transitions used were 459.4→254.0 for compound 1, and 294.8→133.5 for the internal standard.
Animals. Female C57BL/6 mice weighing 18-20 g and 6-8 weeks of age were used for the efficacy study (Jackson, Bar Harbor, Me.). Female CD-1 mice (24-31 g and 7-8 weeks of age) were used for the PK study. They were housed in groups of five mice in sterile polycarbonate shoeboxes with bedding consisting of ¼-inch corncob (The Andersons Ind., Maumee, Ohio) and Alpha-Dri (Shepherd Specialty Papers, Inc., Richland, Mich.). Mice were maintained on a 12-h light/dark cycle at 72° F. and were given Teklad 2918 irradiated extruded rodent diet and water ad libitum. All procedures were performed in accordance with and approved by the University of Notre Dame Institutional Animal Care and Use Committee.
Pharmacokinetics (PK) Studies. Compounds 4, 87, 107, and 108 were dissolved in 10% DMSO, 25% propylene glycol, 15% Tween 80 and 50% water at concentrations of 5 mg/mL or 10 mg/mL. Compound 116 was dissolved in 5% DMSO, 95% water with 96 mg/mL of sodium bicarbonate. Mice (n=2 per time point) were given a single 100 μL oral gavage of the test compound (equivalent to either 10 mg/kg and/or 20 mg/kg), and terminal blood was collected in heparinized syringes by cardiac puncture at 30 min, 1 h, 2 h, 4 h, and 8 h. An average of 250 mg of feces were collected after 8 h from two mice housed in metabolism cages in each group for further analysis. Blood was centrifuged at 1000 g for 2 min at 4° C. to obtain plasma. Plasma and fecal samples were stored at −80° C. until analysis. […]

HeLa cells = assay: XTT cytotoxicity assay with HeLa cells; assay type: cell-based; details: Homo sapiens, Table 6
Method: XTT assay. Cytotoxicity assays were performed in triplicate against HeLa cells (ATCC CCL-2). The IC50 values were calculated by nonlinear regression with GraphPad Prism 5 (San Diego, Calif.).
XTT assay. XTT assays were performed with HeLa cells (ATCC CCL-2) in triplicate, as previously described (Lancet 2008, 371, 1486). IC50 values were determined by nonlinear regression using GraphPad Prism 5 (San Diego, Calif.).

E. faecium NCTC7171 = assay: MIC against E. faecium; assay type: cell-based, Enterococcus faecium; details: Enterococcus faecium, NCTC7171; E. faecium NCTC 7171; Table 10, unit inferred; read-out: Activity (MIC) against E. faecium
C. difficile = assay: MIC by broth microdilution against C. difficile strains; assay type: cell-based, Clostridioides difficile; details: for MIC: Clostridioides difficile
S. aureus ATCC29213 = assay: MIC against MSSA; assay type: cell-based, Staphylococcus aureus; details: Staphylococcus aureus; MSSA ATCC 29213; Table 10, unit inferred; read-out: Activity (MIC) against S. aureus
C. difficile ATCC43255 = assay: Macromolecular synthesis assay (radioactive precursor incorporation); assay type: cell-based, Clostridioides difficile; details: 0.5×MIC, N-acetyl-d-[6-^3H]glucosamine incorporation, 120 min
Method: FIG. 2. Mechanism of action of compound 1. (A) Macromolecular biosynthesis assays: Compound 1 was incubated with C. difficile ATCC43255 at 0.5×MIC. […] The incubation time was 60 min for DNA, 120 min for peptidoglycan synthesis and RNA, and 180 min for protein synthesis. (B-G) Imaging of C. difficile […] vegetative cells (logarithmic growth) by scanning electron microscopy.
The mechanism of action of 1 was investigated using macromolecular synthesis assays. These assays measure the incorporation of radioactive precursors ([2,8-^3H]-adenine, [5,6-^3H]-uridine, 1-[3,4,5-^3H(N)]-leucine, and N-acetyl-d-[6-^3H]glucosamine) respectively into DNA, RNA, protein, and peptidoglycan. […] This analysis visualizes the cell wall as the outermost layer of the cell envelope of Gram-positive bacteria such as C. difficile.
Macromolecular synthesis assay. The macromolecular synthesis assay was performed by established methods. […] The radiolabeled precursors were purchased from Perkin Elmer (Waltham, Mass., USA).

[2] = C. difficile, Table 8, read-out: MIC

Row | MIC (C. difficile; ATCC43255, C. difficile ATCC 43255, read-out: MIC against C. difficile) [µg/mL] | Compound | Conc. feces/MIC [1] | concentration at 8 h [1] [ng/g] | IC50 (HeLa cells) [µg/mL] | MIC (E. faecium NCTC7171) [µg/mL] | MIC (C. difficile; [2]) [µg/mL] | Selectivity (C. difficile; Table 8) | MIC (S. aureus ATCC29213) [µg/mL] | inhibition of cell-wall peptidoglycan biosynthesis (C. difficile ATCC43255) [%] | MIC (C. difficile; ATCC43255, C. difficile ATCC43255, FIG. 2 legend, read-out: MIC of positive controls) [µg/mL]
1 |  | O=C(Nc1ncco1)c1cc(Oc2cccc(F)c2)ccn1 [Compound 107, 4-(3-Fluorophenoxy)-N-(oxazol-2-yl)picolinamide] | 2.4 | 2400 | 88 ± 2.3 (≈ 294 µM) | 64 (≈ 214 µM) | 1 (≈ 3.34 µM) | >256 | 64 (≈ 214 µM) |  | 
2 | 0.5 | O=C([O-])c1ccc2oc(NC(=O)c3cc(Oc4ccc(F)c(F)c4)ccn3)nc2c1.[Na+] [Compound 116, Sodium 2-(4-(3,4-difluorophenoxy)picolinamido)benzo[d]oxazole-5-carboxylate] | 7.4 | 3700 | > 128 | 128 | 0.5 | 128 | 128 |  | 
3 |  | Cc1onc(-c2ccccc2)c1C(=O)N[C@@H]1C(=O)N2[C@@H]1SC(C)(C)[C@@H]2C(=O)O [oxacillin, reference compound] |  |  |  |  |  |  |  | 51±1 | 8
